Tests used:
[1] = xn = mol fraction of the nth substance listed

CCCCCCCCCO + CCCCCCCO
viscosity [mPa·s], [1], 101.8 kPa
Conditions	x2 = 0.1184	x2 = 0.3815	x2 = 0.5514	x2 = 0.7089	x2 = 0.9183
298.15 K	9.014	7.935	7.47	6.84	6.013
308.15 K	6.366	5.68	5.353	4.96	4.408
318.15 K	4.618	4.157	3.932	3.662	3.286

CCCCCCCCCO + C1CCCCC1
viscosity [mPa·s], [1]
Conditions	293.15 K	303.15 K	313.15 K	323.15 K
100 kPa, x2 = 0.0822	9.85	6.89	4.93	3.66
100 kPa, x2 = 0.1616	8.5	6	4.32	3.23
100 kPa, x2 = 0.2413	7.2	5.17	3.76	2.83
100 kPa, x2 = 0.3502	5.63	4.15	3.05	2.33
100 kPa, x2 = 0.4404	4.51	3.44	2.54	1.96
100 kPa, x2 = 0.5611	3.29	2.63	1.97	1.56
100 kPa, x2 = 0.6503	2.57	2.13	1.6	1.3
100 kPa, x2 = 0.7412	1.96	1.68	1.3	1.08
100 kPa, x2 = 0.8514	1.42	1.26	1.03	0.86
100 kPa, x2 = 0.9397	1.11	0.97	0.81	0.7
101.33 kPa, x1 = 0.105	–	1.068	–	–
101.33 kPa, x1 = 0.2105	–	1.397	–	–
101.33 kPa, x1 = 0.311	–	1.784	–	–
101.33 kPa, x1 = 0.3969	–	2.186	–	–
101.33 kPa, x1 = 0.4955	–	2.735	–	–
101.33 kPa, x1 = 0.6055	–	3.462	–	–
101.33 kPa, x1 = 0.6959	–	4.153	–	–
101.33 kPa, x1 = 0.801	–	5.108	–	–
101.33 kPa, x1 = 0.9054	–	6.215	–	–

CC(N)=O + c1ccncc1
[1], 298.15 K, 101 kPa
Conditions	viscosity [mPa·s]
x1 = 0.0512	0.987
x1 = 0.0742	1.005
x1 = 0.111	1.088
x1 = 0.2065	1.381

CN(C)CCCO
viscosity [mPa·s]
Conditions	293.15 K	303.15 K	308.15 K	313.15 K	318.15 K	323.15 K
100 kPa	7.42	5.228	–	4.007	–	3.082
101 kPa	–	4.933	4.22	3.632	3.155	2.765

O=S(=O)(O)CC(O)CN1CCOCC1 (centres undefined) + O
viscosity [mPa·s], [1], 101.3 kPa
Conditions	x1 = 0.00371	x1 = 0.007201	x1 = 0.009661	x1 = 0.01079	x1 = 0.01403	x1 = 0.01784
298.15 K	0.942	1.033	1.078	1.117	1.197	1.303
308.15 K	0.761	0.833	0.871	0.901	0.966	1.051
318.15 K	0.631	0.691	0.721	0.746	0.798	0.866

CC1CCCCC1=O (centres undefined) + NC=O
viscosity [mPa·s], [1], 100 kPa
Conditions	x1 = 0.1005	x1 = 0.1979	x1 = 0.2917	x1 = 0.4002	x1 = 0.5089	x1 = 0.6019	x1 = 0.6999	x1 = 0.8001	x1 = 0.9001
303.15 K	2.822	2.768	2.712	2.644	2.575	2.513	2.446	2.375	2.302
308.15 K	2.583	2.549	2.513	2.468	2.42	2.378	2.331	2.281	2.228
313.15 K	2.346	2.332	2.315	2.291	2.265	2.242	2.217	2.188	2.154

CC(N)=O + CCO
[1], 303.15 K, 101 kPa
Conditions	viscosity [mPa·s]
x1 = 0.0327	9.42
x1 = 0.0646	10
x1 = 0.0901	10.16
x1 = 0.1011	12.61

O=[N+]([O-])c1ccccc1O + Cc1ccccc1
viscosity [mPa·s], [1], 101 kPa
Conditions	303.15 K	308.15 K	313.15 K	318.15 K	323.15 K
x1 = 0.5473	1.278	1.182	1.088	1.011	0.942
x1 = 0.7633	–	1.838	1.672	1.528	1.411

Cc1cccc2ccccc12 + Cc1ccccc1
viscosity [mPa·s], [1], 100 kPa
Conditions	x2 = 0.2784	x2 = 0.6068	x2 = 0.8224
298.15 K	1.646	1.036	0.731
313.15 K	1.285	0.841	0.608

CCC1CCCCC1 + CC(=O)CC(C)C
[1], 298.15 K, 101 kPa
Conditions	viscosity [mPa·s]
x2 = 0.1314	0.695
x2 = 0.2549	0.645
x2 = 0.3669	0.621
x2 = 0.473	0.6
x2 = 0.5856	0.583
x2 = 0.7041	0.567
x2 = 0.8091	0.556
x2 = 0.9079	0.547
